Read-outs that look alike come from different tables or passages of the source.
Tests used:
Assay type in all cases: in vivo
[1] = tested on: pigweed (Amaranthus retroflexus); assay: Test A preemergence; conditions: Amaranthus retroflexus, pre-emergence, 240 h; for pest or weed control at 125 g/ha: 125 g ai/ha; for pest or weed control at 500 g/ha: 500 g ai/ha
[2] = tested on: ducksalad (Heteranthera limosa); assay: Test B flooded paddy test; conditions: Heteranthera limosa, 250 g ai/ha, Flood; 0 to 100 scale where 0 is no effect and 100 is complete control; read-out: Ducksalad plant response rating
Procedure, shortened: (§1)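 Plants at 2-leaf stage flooded to 3 cm above soil, with compounds applied directly to paddy water and that depth maintained. Plants kept in greenhouse 13–15 d. Visual rating versus controls on a 0 (no effect) to 100 (complete control) scale.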

[3] = tested on: rice (Oryra sativa); assay: Test B flooded paddy test; conditions: Oryza sativa, 250 g ai/ha, Flood; 0 to 100 scale where 0 is no effect and 100 is complete control; read-out: Rice plant response rating
Procedure, shortened: as §1

[4] = tested on: sedge, umbrella (small-flower umbrella sedge, Cyperus difformis); assay: Test B flooded paddy test; conditions: Cyperus difformis, 250 g ai/ha, Flood; 0 to 100 scale where 0 is no effect and 100 is complete control; read-out: Sedge, Umbrella plant response rating
Procedure, shortened: as §1

[5] = tested on: barnyardgrass (Echinochloa crus-galli); assay: Test B flooded paddy test; conditions: Echinochloa crus-galli, 250 g ai/ha, Flood; 0 to 100 scale where 0 is no effect and 100 is complete control; read-out: Barnyardgrass plant response rating
Procedure, shortened: as §1

[6] = tested on: blackgrass (Alopecurus myosuroides); assay: Test A postemergence; conditions: Alopecurus myosuroides, post-emergence, 240 h, postemergence; for pest or weed control at 125 g/ha: 125 g ai/ha, visual injury on 0 to 100 scale (0 no effect, 100 complete control); for pest or weed control at 500 g/ha: 500 g ai/ha
Procedure, shortened: (§2)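 Compounds were formulated in a non-phytotoxic solvent mixture with surfactant and applied as a preemergence directed soil spray after seeding, or sprayed postemergence over plants 2 to 10 cm tall at the one- to two-leaf stage. Evaluation after about 10 d compared treated with untreated controls, using a scale from 0 (no effect) to 100 (complete control).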

[7] = tested on: corn (Zea mays); assay: Test A postemergence; conditions: Zea mays, post-emergence, 240 h, postemergence; for plant injury at 125 g/ha: 125 g ai/ha, visual injury on 0 to 100 scale (0 no effect, 100 complete control); for plant injury at 125 g/ha / plant injury at 500 g/ha: read-out: Corn plant response rating; for plant injury at 500 g/ha: 0 to 100 scale, 0 is no effect, 100 is complete control
Procedure, shortened: as §2

[8] = tested on: pigweed (Amaranthus retroflexus); assay: Test A postemergence; conditions: Amaranthus retroflexus, post-emergence, 240 h, postemergence, read-out: Pigweed plant response rating; for pest or weed control at 125 g/ha: 125 g ai/ha, visual injury on 0 to 100 scale (0 no effect, 100 complete control), approx. 10 d; for pest or weed control at 500 g/ha: 500 g ai/ha, 0 to 100 scale, 0 is no effect, 100 is complete control
Procedure, shortened: as §2

[9] = tested on: ragweed (common ragweed, Ambrosia elatior); assay: Test A postemergence; conditions: Ambrosia artemisiifolia, post-emergence, 240 h, postemergence, read-out: Ragweed plant response rating; for pest or weed control at 125 g/ha: 125 g ai/ha, visual injury on 0 to 100 scale (0 no effect, 100 complete control), approx. 10 d; for pest or weed control at 500 g/ha: 500 g ai/ha, 0 to 100 scale, 0 is no effect, 100 is complete control
Procedure, shortened: as §2

[10] = tested on: ryegrass, Italian (Italian ryegrass, Lolium multiflorum); assay: Test A postemergence; conditions: Lolium multiflorum, post-emergence, 240 h, postemergence, read-out: Ryegrass, Italian plant response rating; for pest or weed control at 125 g/ha: 125 g ai/ha, visual injury on 0 to 100 scale (0 no effect, 100 complete control), approx. 10 d; for pest or weed control at 500 g/ha: 500 g ai/ha, 0 to 100 scale, 0 is no effect, 100 is complete control
Procedure, shortened: as §2

[11] = tested on: barnyardgrass (Echinochloa crus-galli); assay: Test A postemergence; conditions: Echinochloa crus-galli, post-emergence, 240 h, postemergence; for pest or weed control at 125 g/ha: 125 g ai/ha, visual injury on 0 to 100 scale (0 no effect, 100 complete control); for pest or weed control at 500 g/ha: 500 g ai/ha
Procedure, shortened: as §2

[12] = tested on: Galium (catchweed bedstraw, Galium aparine); assay: Test A postemergence; conditions: Galium, post-emergence, 240 h, postemergence; for pest or weed control at 125 g/ha: 125 g ai/ha, visual injury on 0 to 100 scale (0 no effect, 100 complete control); for pest or weed control at 500 g/ha: 500 g ai/ha
Procedure, shortened: as §2

[13] = tested on: Kochia (Kochia scoparia); assay: Test A postemergence; conditions: Bassia scoparia, post-emergence, 240 h, postemergence; for pest or weed control at 125 g/ha: 125 g ai/ha, visual injury on 0 to 100 scale (0 no effect, 100 complete control); for pest or weed control at 500 g/ha: 500 g ai/ha
Procedure, shortened: as §2

[14] = tested on: giant foxtail (Setaria faberii); assay: Test A postemergence; conditions: Setaria faberi, post-emergence, 240 h, postemergence; for pest or weed control at 125 g/ha: 125 g ai/ha, visual injury on 0 to 100 scale (0 no effect, 100 complete control); for pest or weed control at 500 g/ha: 500 g ai/ha
Procedure, shortened: as §2

[15] = tested on: wheat (Triticum aestivum); assay: Test A postemergence; conditions: Triticum aestivum, post-emergence, 240 h, postemergence, read-out: Wheat plant response rating; for plant injury at 125 g/ha: 125 g ai/ha, visual injury on 0 to 100 scale (0 no effect, 100 complete control), approx. 10 d; for plant injury at 500 g/ha: 500 g ai/ha, 0 to 100 scale, 0 is no effect, 100 is complete control
Procedure, shortened: as §2

[16] = preemergence, 0 to 100 scale where 0 is no effect and 100 is complete control, approx. 10 d, read-out: Pigweed plant response rating
[17] = preemergence, 0 to 100 scale where 0 is no effect and 100 is complete control, read-out: Pigweed plant response rating
[18] = approx. 10 d, read-out: Blackgrass plant response rating
[19] = 0 to 100 scale, 0 is no effect, 100 is complete control, read-out: Blackgrass plant response rating
[20] = approx. 10 d, read-out: Barnyardgrass plant response rating
[21] = 0 to 100 scale, 0 is no effect, 100 is complete control, read-out: Barnyardgrass plant response rating
[22] = approx. 10 d, read-out: Galium plant response rating
[23] = 0 to 100 scale, 0 is no effect, 100 is complete control, read-out: Galium plant response rating
[24] = approx. 10 d, read-out: Kochia plant response rating
[25] = 0 to 100 scale, 0 is no effect, 100 is complete control, read-out: Kochia plant response rating
[26] = approx. 10 d, read-out: Foxtail, Giant plant response rating
[27] = 0 to 100 scale, 0 is no effect, 100 is complete control, read-out: Foxtail, Giant plant response rating
[28] = preemergence, visual injury rating about 10 d after treatment, 0 to 100 scale (0 no effect, 100 complete control), read-out: Pigweed plant response rating

Compound | pest or weed control at 125 g/ha [1, 16] [%] | pest or weed control at 250 g/ha [2] [%] | pest or weed control at 250 g/ha [3] [%] | pest or weed control at 250 g/ha [4] [%] | pest or weed control at 250 g/ha [5] [%] | pest or weed control at 125 g/ha [6, 18] [%] | pest or weed control at 500 g/ha [6, 19] [%] | plant injury at 125 g/ha ([7]; approx. 10 d) [%] | plant injury at 500 g/ha ([7]; 500 g ai/ha) [%] | pest or weed control at 125 g/ha [8] [%] | pest or weed control at 500 g/ha [8] [%] | pest or weed control at 125 g/ha [9] [%] | pest or weed control at 500 g/ha [9] [%] | pest or weed control at 125 g/ha [10] [%] | pest or weed control at 500 g/ha [10] [%] | pest or weed control at 125 g/ha [11, 20] [%] | pest or weed control at 125 g/ha [12, 22] [%] | pest or weed control at 125 g/ha [13, 24] [%] | pest or weed control at 125 g/ha [14, 26] [%] | plant injury at 125 g/ha [15] [%] | further results
CN1C[C@H](c2cscn2)[C@@H](C(=O)Nc2ccccc2F)C1=O [Compound 1112] | 0 | 0 | 15 | 40 | 0 | 0 | 0 | 0 | 0 | 0 | 0 | 0 | 0 | 0 | 0 | 0 | 0 | 0 | 0 | 0 | pest or weed control at 500 g/ha [1, 17]: 0%; pest or weed control at 500 g/ha [11, 21]: 0%; pest or weed control at 500 g/ha [12, 23]: 0%; pest or weed control at 500 g/ha [13, 25]: 0%; pest or weed control at 500 g/ha [14, 27]: 0%; plant injury at 500 g/ha [15]: 0%
O=C(Nc1ccccc1C(F)(F)F)[C@H]1C(=S)NC[C@@H]1c1ccc(C(F)(F)F)cc1 (racemic) [Compound 1049] |  | 70 | 0 | 0 | 20 | 0 |  | 0 |  | 10 |  | 0 |  | 0 |  | 30 | 0 | 0 | 70 | 0 | pest or weed control at 125 g/ha ([1]; Preemergence, visual injury rating after approximately 10 d, read-out: Pigweed plant response rating (0 to 100 scale, 0 is no effect, 100 is complete control)): 0%; pest or weed control at 500 g/ha [1, 28]: 60%; pest or weed control at 500 g/ha ([6]; visual injury, 0 to 100 scale (0 no effect, 100 complete control), approx. 10 d, read-out: Plant response rating, Blackgrass): 0%; Corn plant response rating (crop injury, 0 = no effect, 100 = complete kill) at 500 g/ha ([7]; 500 g ai/ha, visual injury, 0 to 100 scale (0 no effect, 100 complete control), approx. 10 d): 0%; pest or weed control at 500 g/ha ([11]; visual injury, 0 to 100 scale (0 no effect, 100 complete control), approx. 10 d, read-out: Plant response rating, Barnyardgrass): 50%; pest or weed control at 500 g/ha ([12]; visual injury, 0 to 100 scale (0 no effect, 100 complete control), approx. 10 d, read-out: Plant response rating, Galium): 40%; pest or weed control at 500 g/ha ([13]; visual injury, 0 to 100 scale (0 no effect, 100 complete control), approx. 10 d, read-out: Plant response rating, Kochia): 30%; pest or weed control at 500 g/ha ([14]; visual injury, 0 to 100 scale (0 no effect, 100 complete control), approx. 10 d, read-out: Plant response rating, Foxtail, Giant): 80%
Cc1cc([C@H]2CN(C)C(=O)[C@@H]2C(=O)Nc2ccc(F)cc2F)ccc1Br [Compound 1100] | 0 | 75 | 0 | 0 | 0 | 0 | 20 | 0 | 20 | 0 | 0 | 0 | 0 | 20 | 20 | 60 | 0 | 0 | 70 | 0 | pest or weed control at 500 g/ha [1, 28]: 0%; pest or weed control at 500 g/ha [11, 21]: 70%; pest or weed control at 500 g/ha [12, 23]: 20%; pest or weed control at 500 g/ha [13, 25]: 20%; pest or weed control at 500 g/ha [14, 27]: 70%; plant injury at 500 g/ha [15]: 20%
Cc1c(F)cccc1NC(=O)[C@H]1C(=O)NC[C@@H]1c1cc(F)c(F)c(F)c1 [Compound 1125] | 0 | 100 | 0 | 0 | 70 | 40 | 50 | 30 | 60 | 0 | 0 | 0 | 0 | 0 | 60 | 90 | 40 | 0 | 90 | 30 | pest or weed control at 500 g/ha [1, 17]: 40%; pest or weed control at 500 g/ha [11, 21]: 90%; pest or weed control at 500 g/ha [12, 23]: 50%; pest or weed control at 500 g/ha [13, 25]: 40%; pest or weed control at 500 g/ha [14, 27]: 90%; plant injury at 500 g/ha [15]: 40%
